The values below come from patent US20230048132A1, “CYCLIN-DEPENDENT KINASE INHIBITORS” (SPV THERAPEUTICS INC., priority 2018, published 2023).

Holding throughout (experiment): CDK inhibition assay (microfluidic LabChip, IC50 format)
In one assay the target is T1, CDK2-CYCLINA (Homo sapiens, UniProt P24941).
T1 construct: purchased Millipore
In kind it is biochemical. The conditions noted are these: read-out: CDK2 CyclinA IC50.

Another assay has as its target T2, CDK6-CYCLIND3 (Homo sapiens, UniProt Q00534).
T2 construct: purchased Carna
In kind it is biochemical. The note with it: read-out: CDK6 CyclinD3 IC50.

The target of the next assay is CDK7 CyclinH (Homo sapiens, UniProt P50613). In kind it is biochemical.
CDK7 CyclinH, sequence (P50613 whole entry): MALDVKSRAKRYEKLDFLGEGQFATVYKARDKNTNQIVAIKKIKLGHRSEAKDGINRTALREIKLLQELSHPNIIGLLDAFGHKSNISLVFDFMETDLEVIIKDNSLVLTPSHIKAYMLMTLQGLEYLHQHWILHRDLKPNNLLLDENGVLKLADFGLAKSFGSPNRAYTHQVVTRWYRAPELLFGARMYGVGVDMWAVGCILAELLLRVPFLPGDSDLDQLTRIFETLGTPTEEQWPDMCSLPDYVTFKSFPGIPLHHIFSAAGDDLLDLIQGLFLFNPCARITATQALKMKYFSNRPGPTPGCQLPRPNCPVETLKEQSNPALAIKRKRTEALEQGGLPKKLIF
CDK7 CyclinH, sequence (P51946 whole entry partner): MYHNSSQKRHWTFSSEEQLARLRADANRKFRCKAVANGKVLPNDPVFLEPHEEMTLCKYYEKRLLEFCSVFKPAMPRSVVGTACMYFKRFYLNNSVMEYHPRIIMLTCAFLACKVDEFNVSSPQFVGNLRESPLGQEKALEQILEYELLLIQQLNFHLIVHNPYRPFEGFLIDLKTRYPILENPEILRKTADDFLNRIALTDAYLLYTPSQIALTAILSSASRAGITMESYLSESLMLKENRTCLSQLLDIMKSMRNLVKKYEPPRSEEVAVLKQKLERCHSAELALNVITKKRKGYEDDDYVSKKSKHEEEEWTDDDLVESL
CDK7 CyclinH, sequence (P51948 whole entry partner): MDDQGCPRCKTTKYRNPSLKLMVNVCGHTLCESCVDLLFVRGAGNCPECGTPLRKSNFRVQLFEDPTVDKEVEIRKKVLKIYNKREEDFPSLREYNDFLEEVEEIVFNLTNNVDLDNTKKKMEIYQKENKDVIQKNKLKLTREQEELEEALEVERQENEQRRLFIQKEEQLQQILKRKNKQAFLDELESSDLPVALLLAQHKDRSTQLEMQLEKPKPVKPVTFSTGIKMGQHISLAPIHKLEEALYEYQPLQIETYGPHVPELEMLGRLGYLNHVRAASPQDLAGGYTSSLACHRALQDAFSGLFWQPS
In another assay the target is T3, CDK9-CYCLINT1 (Homo sapiens, UniProt P50750).
T3 construct: purchased Carna
T3 sequence (P50750 whole entry): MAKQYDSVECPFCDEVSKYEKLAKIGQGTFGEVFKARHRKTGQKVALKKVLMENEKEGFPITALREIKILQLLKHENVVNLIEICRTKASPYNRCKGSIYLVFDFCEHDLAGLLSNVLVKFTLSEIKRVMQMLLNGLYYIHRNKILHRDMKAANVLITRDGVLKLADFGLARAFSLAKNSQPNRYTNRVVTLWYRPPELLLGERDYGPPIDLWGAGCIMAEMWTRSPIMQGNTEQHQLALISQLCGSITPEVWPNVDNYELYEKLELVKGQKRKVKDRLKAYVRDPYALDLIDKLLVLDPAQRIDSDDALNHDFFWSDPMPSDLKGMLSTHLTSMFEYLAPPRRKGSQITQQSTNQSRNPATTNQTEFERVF
T3 sequence (O60563 whole entry partner): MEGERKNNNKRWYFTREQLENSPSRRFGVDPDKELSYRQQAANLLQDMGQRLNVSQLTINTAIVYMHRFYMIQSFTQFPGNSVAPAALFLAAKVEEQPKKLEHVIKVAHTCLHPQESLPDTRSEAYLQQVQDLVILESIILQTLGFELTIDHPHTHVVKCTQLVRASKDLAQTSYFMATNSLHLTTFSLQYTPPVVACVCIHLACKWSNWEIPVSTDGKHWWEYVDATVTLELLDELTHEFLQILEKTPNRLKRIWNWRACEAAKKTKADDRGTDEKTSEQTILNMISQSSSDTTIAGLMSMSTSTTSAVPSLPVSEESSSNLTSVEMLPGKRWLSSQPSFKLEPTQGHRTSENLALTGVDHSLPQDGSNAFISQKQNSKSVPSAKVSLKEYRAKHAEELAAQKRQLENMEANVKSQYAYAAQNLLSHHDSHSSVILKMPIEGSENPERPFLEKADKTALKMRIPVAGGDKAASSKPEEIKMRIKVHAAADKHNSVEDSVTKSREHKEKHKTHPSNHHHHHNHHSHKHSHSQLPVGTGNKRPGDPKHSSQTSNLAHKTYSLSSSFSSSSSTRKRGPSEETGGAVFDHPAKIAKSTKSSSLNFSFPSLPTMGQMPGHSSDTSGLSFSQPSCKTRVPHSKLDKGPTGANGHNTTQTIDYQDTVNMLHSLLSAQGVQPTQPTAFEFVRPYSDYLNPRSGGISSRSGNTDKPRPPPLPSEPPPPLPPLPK
In kind it is biochemical. The note with it: read-out: CDK9 CyclinT1 IC50.

Another assay concerns the target CDK4-CYCLIND1 (Homo sapiens, UniProt P11802). The note with it: a second value in parentheses for some compounds.
[1] abbreviates: CDK4 CyclinD1 IC50, Table 4b, lower part.

Structures are written as SMILES. Values joined by “and” are separate entries in the source; they are usually repeats but may differ in a detail not shown here. Equal values may be shown once. Read-outs that look alike come from different tables or passages of the source.

The term IC50 denotes the concentration needed to halve the response being measured.

CDK4-CYCLIND1, sequence (P11802 whole entry): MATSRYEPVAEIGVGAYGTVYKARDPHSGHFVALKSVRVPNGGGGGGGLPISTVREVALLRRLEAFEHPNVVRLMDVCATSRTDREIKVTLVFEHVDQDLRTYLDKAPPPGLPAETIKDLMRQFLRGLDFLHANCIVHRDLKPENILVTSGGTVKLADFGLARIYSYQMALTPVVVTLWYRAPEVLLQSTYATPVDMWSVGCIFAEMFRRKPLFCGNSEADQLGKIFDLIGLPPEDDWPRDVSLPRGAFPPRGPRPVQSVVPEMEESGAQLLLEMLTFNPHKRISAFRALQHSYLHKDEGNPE
CDK4-CYCLIND1, sequence (P24385 whole entry partner): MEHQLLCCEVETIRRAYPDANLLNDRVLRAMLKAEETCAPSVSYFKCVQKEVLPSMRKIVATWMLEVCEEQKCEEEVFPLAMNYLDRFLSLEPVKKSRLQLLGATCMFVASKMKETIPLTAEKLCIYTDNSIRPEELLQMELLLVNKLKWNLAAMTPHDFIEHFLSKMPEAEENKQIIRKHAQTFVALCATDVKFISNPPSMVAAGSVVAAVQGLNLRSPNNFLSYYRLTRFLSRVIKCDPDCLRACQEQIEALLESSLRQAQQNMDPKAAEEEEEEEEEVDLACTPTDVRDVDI
T2 sequence (Q00534 whole entry): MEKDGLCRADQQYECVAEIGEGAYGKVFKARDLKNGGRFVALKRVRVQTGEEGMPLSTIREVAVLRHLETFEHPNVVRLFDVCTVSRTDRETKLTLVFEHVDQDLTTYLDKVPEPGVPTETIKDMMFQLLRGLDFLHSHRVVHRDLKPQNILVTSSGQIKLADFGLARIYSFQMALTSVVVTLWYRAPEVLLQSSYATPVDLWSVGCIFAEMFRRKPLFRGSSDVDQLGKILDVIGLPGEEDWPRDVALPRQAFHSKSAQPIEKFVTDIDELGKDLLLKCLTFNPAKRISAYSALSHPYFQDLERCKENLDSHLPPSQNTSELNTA
T2 sequence (P30281 whole entry partner): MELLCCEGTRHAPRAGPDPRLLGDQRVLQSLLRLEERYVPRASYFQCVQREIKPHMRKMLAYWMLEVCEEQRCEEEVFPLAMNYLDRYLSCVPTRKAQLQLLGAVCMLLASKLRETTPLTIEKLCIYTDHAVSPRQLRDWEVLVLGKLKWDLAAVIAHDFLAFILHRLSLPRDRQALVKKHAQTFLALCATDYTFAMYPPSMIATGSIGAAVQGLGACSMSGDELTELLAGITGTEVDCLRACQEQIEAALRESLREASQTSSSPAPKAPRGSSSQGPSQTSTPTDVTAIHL

For `COc1cc(Nc2ncc3c(n2)N(C2CCCC2)C(=O)[C@]2(CCNC2=O)C3)ccc1N1CCN(C)CC1` [Example D160, (S)-8-cyclopentyl-2-((3-methoxy-4-(4-methylpiperazin-1-yl)phenyl)amino)-5,8-dihydro-7H-spiro[pyrido[2,3-d]pyrimidine-6,3′-pyrrolidine]-2′,7-dione], the concentration for half-maximal inhibition (IC50) on CDK2-CYCLINA (Table 4a) came to 33.5 nM; on CDK6-CYCLIND3 (Table 4a), 3.41 nM; at CDK7 CyclinH (Table 4a), 157 nM; at CDK9-CYCLINT1 (Table 4a), 6.41 nM; on CDK4-CYCLIND1 (CDK4 CyclinD1 IC50, Table 4a) it was 1.2 nM.
Taken in the same sequence, the figures for `COc1cc(Nc2ncc3c(n2)N(C2CCCC2)C(=O)[C@]2(CCNC2=O)C3)ccc1N1CCN(C(C)C)CC1` [Example D161, (S)-8-cyclopentyl-2-((4-(4-isopropylpiperazin-1-yl)-3-methoxyphenyl)amino)-5,8-dihydro-7H-spiro[pyrido[2,3-d]pyrimidine-6,3′-pyrrolidine]-2′,7-dione] were 30.5 nM, 3.88 nM, 157 nM, 7.27 nM and 1.29 nM.
In the case of `Cc1cc(N2CCNCC2)ccc1Nc1ncc2c(n1)N(C1CCCC1)C(=O)[C@]1(CCNC1=O)C2` [Example D162, (S)-8-cyclopentyl-2-((2-methyl-4-(piperazin-1-yl)phenyl)amino)-5,8-dihydro-7H-spiro[pyrido[2,3-d]pyrimidine-6,3′-pyrrolidine]-2′,7-dione], the IC50 at CDK2-CYCLINA (Table 4a) stood at 382 nM; on CDK6-CYCLIND3 (Table 4a), 10.4 nM; on CDK7 CyclinH (Table 4a) it was 3240 nM; on CDK9-CYCLINT1 (Table 4a) it was 61.9 nM; at CDK4-CYCLIND1 (CDK4 CyclinD1 IC50, Table 4a), 5.34 nM.
Taken in the same sequence, the figures for `Cc1cc(N2CCN(C)CC2)ccc1Nc1ncc2c(n1)N(C1CCCC1)C(=O)[C@]1(CCNC1=O)C2` [Example D163, (S)-8-cyclopentyl-2-((2-methyl-4-(4-methylpiperazin-1-yl)phenyl)amino)-5,8-dihydro-7H-spiro[pyrido[2,3-d]pyrimidine-6,3′-pyrrolidine]-2′,7-dione] were 338 nM, 10.6 nM, 2630 nM, 65.1 nM and 9.02 nM.
Taken in the same sequence, the figures for `Cc1cc(N2CCN(C(C)C)CC2)ccc1Nc1ncc2c(n1)N(C1CCCC1)C(=O)[C@]1(CCNC1=O)C2` [Example D164, (S)-8-cyclopentyl-2-((4-(4-isopropylpiperazin-1-yl)-2-methylphenyl)amino)-5,8-dihydro-7H-spiro[pyrido[2,3-d]pyrimidine-6,3′-pyrrolidine]-2′,7-dione] were 744 nM, 13.7 nM, 3160 nM, 71.9 nM and 9.05 nM.
Taken in the same sequence, the figures for `COc1cc(N2CCNCC2)ccc1Nc1ncc2c(n1)N(C1CCCC1)C(=O)[C@]1(CCNC1=O)C2` [Example D165, (S)-8-cyclopentyl-2-((2-methoxy-4-(piperazin-1-yl)phenyl)amino)-5,8-dihydro-7H-spiro[pyrido[2,3-d]pyrimidine-6,3′-pyrrolidine]-2′,7-dione] were 775 nM, 58.5 nM, 7300 nM, 236 nM and 29.2 nM.
Take `COc1cc(N2CCN(C(C)C)CC2)ccc1Nc1ncc2c(n1)N(C1CCCC1)C(=O)[C@]1(CCNC1=O)C2` [Example D167, (S)-8-cyclopentyl-2-((4-(4-isopropylpiperazin-1-yl)-2-methoxyphenyl)amino)-5,8-dihydro-7H-spiro[pyrido[2,3-d]pyrimidine-6,3′-pyrrolidine]-2′,7-dione]: the IC50 worked out at 2900 nM on CDK2-CYCLINA (Table 4a); 111 nM on CDK6-CYCLIND3 (Table 4a); 12000 nM against CDK7 CyclinH (Table 4a); 418 nM on CDK9-CYCLINT1 (Table 4a); 69 nM on CDK4-CYCLIND1 (CDK4 CyclinD1 IC50, Table 4a).
Taken in the same sequence, the figures for `CC(C)n1cc(-c2ccc(Nc3ncc4c(n3)N(C3CCCC3)C(=O)[C@]3(CCNC3=O)C4)nc2)cn1` [Example D170, (S)-8-cyclopentyl-2-((5-(1-isopropyl-1H-pyrazol-4-yl)pyridin-2-yl)amino)-5,8-dihydro-7H-spiro[pyrido[2,3-d]pyrimidine-6,3′-pyrrolidine]-2′,7-dione] were 8560 nM, 53.1 nM, more than 100000 nM, 390 nM and 42.3 nM.
Taken in the same sequence, the figures for `CC(C)N1CC2(CN(c3ccc(Nc4ncc5c(n4)N(C4CCCC4)C(=O)[C@]4(CCNC4=O)C5)nc3)C2)C1` [Example D171, (S)-8-cyclopentyl-2-((5-(6-isopropyl-2,6-diazaspiro[3.3]heptan-2-yl)pyridin-2-yl)amino)-5,8-dihydro-7H-spiro[pyrido[2,3-d]pyrimidine-6,3′-pyrrolidine]-2′,7-dione] were 2840 nM, 3.78 nM, 26500 nM, 271 nM and 1.98 nM.
As to `O=C1NCC[C@@]12Cc1cnc(Nc3ccc(N4CC5(CNC5)C4)cc3)nc1N(C1CCCC1)C2=O` [Example D172, (S)-2-((4-(2,6-diazaspiro[3.3]heptan-2-yl)phenyl)amino)-8-cyclopentyl-5,8-dihydro-7H-spiro[pyrido[2,3-d]pyrimidine-6,3′-pyrrolidine]-2′,7-dione], the half-maximal inhibitory concentration (IC50) worked out at 79.5 nM on CDK2-CYCLINA (Table 4a); 6.6 nM on CDK6-CYCLIND3 (Table 4a); 673 nM against CDK7 CyclinH (Table 4a); 4.81 nM at CDK9-CYCLINT1 (Table 4a); 2.72 nM on CDK4-CYCLIND1 (CDK4 CyclinD1 IC50, Table 4a).
Taken in the same sequence, the figures for `O=C1NCC[C@@]12Cc1cnc(Nc3ccc(N4CC5(CNC5)C4)c(F)c3)nc1N(C1CCCC1)C2=O` [Example D173, (S)-8-cyclopentyl-2-((3-fluoro-4-(2,6-diazaspiro[3.3]heptan-2-yl)phenyl)amino)-5,8-dihydro-7H-spiro[pyrido[2,3-d]pyrimidine-6,3′-pyrrolidine]-2′,7-dione] were 110 nM, 11.6 nM, 682 nM, 5.74 nM and 5.37 nM.
Taken in the same sequence, the figures for `CN(C)[C@H]1CCN(c2ccc(Nc3ncc4c(n3)N(C3CCCC3)C(=O)[C@]3(CCNC3=O)C4)cc2)C1` [Example D174, (S)-8-cyclopentyl-2-((4-((S)-3-(dimethylamino)pyrrolidin-1-yl)phenyl)amino)-5,8-dihydro-7H-spiro[pyrido[2,3-d]pyrimidine-6,3′-pyrrolidine]-2′,7-dione] were 60.9 nM, 3.16 nM, 505 nM, 6.93 nM and 1.52 nM.
For the compound `CN(C)[C@@H]1CCN(c2ccc(Nc3ncc4c(n3)N(C3CCCC3)C(=O)[C@]3(CCNC3=O)C4)cn2)C1` [Example D175, (S)-8-cyclopentyl-2-((6-((R)-3-(dimethylamino)pyrrolidin-1-yl)pyridin-3-yl)amino)-5,8-dihydro-7H-spiro[pyrido[2,3-d]pyrimidine-6,3′-pyrrolidine]-2′,7-dione], the 50% inhibitory concentration (IC50) was 57.1 nM on CDK2-CYCLINA (Table 4a); 2.6 nM at CDK6-CYCLIND3 (Table 4a); 465 nM on CDK7 CyclinH (Table 4a); 3.62 nM at CDK9-CYCLINT1 (Table 4a); 1.56 nM and 0.83 nM at CDK4-CYCLIND1 (CDK4 CyclinD1 IC50, Table 4a).
Take `CN(C)[C@H]1CCN(C(=O)c2ccc(Nc3ncc4c(n3)N(C3CCCC3)C(=O)[C@]3(CCNC3=O)C4)cc2)C1` [Example D177, (S)-8-cyclopentyl-2-((4-((S)-3-(dimethylamino)pyrrolidine-1-carbonyl)phenyl)amino)-5,8-dihydro-7H-spiro[pyrido[2,3-d]pyrimidine-6,3′-pyrrolidine]-2′,7-dione]: the IC50 at CDK2-CYCLINA (Table 4a) was found to be 50 nM; on CDK6-CYCLIND3 (Table 4a), 13.9 nM; against CDK7 CyclinH (Table 4a), 2940 nM; at CDK9-CYCLINT1 (Table 4a), 19.1 nM; at CDK4-CYCLIND1 (CDK4 CyclinD1 IC50, Table 4a), 4.72 nM.
Taken in the same sequence, the figures for `O=C1NCC[C@@]12Cc1cnc(Nc3ccc(OCCN4CCCC4)c(F)c3)nc1N(C1CCCC1)C2=O` [Example D180, (S)-8-cyclopentyl-2-((3-fluoro-4-(2-(pyrrolidin-1-yl)ethoxy)phenyl)amino)-5,8-dihydro-7H-spiro[pyrido[2,3-d]pyrimidine-6,3′-pyrrolidine]-2′,7-dione] were 98.7 nM, 4.35 nM, 266 nM, 2.84 nM and 1.79 nM.
On to `O=C1NCC[C@@]12Cc1cnc(Nc3ccc(N4CCC(N5CCOCC5)CC4)cn3)nc1N(C1CCCC1)C2=O` [Example D181, (S)-8-cyclopentyl-2-((5-(4-morpholinopiperidin-1-yl)pyridin-2-yl)amino)-5,8-dihydro-7H-spiro[pyrido[2,3-d]pyrimidine-6,3′-pyrrolidine]-2′,7-dione], for which the half-inhibitory concentration (IC50) stood at 5820 nM at CDK2-CYCLINA (Table 4b, lower part); 6.79 nM at CDK6-CYCLIND3 (Table 4b, lower part); 40900 nM on CDK7 CyclinH (Table 4b, lower part); 818 nM on CDK9-CYCLINT1 (Table 4b, lower part); 4.3 nM on CDK4-CYCLIND1 (setting [1]).
Taken in the same sequence, the figures for `O=C1NCC[C@@]12Cc1cnc(Nc3ccc(N4CCC(N5CCOCC5)CC4)cc3)nc1N(C1CCCC1)C2=O` [Example D182, (S)-8-cyclopentyl-2-((4-(4-morpholinopiperidin-1-yl)phenyl)amino)-5,8-dihydro-7H-spiro[pyrido[2,3-d]pyrimidine-6,3′-pyrrolidine]-2′,7-dione] were 115 nM, less than 0.56 nM, 591 nM, 16.2 nM and less than 0.56 nM.
